Experimental data reported in PubChem BioAssay AID1963840 (Molecular Pharmacology Branch, DTP, NCI, 2024).
pIC50: −log10 of the molar value.

Tested on: 695427-040-R-J1-PDC complex spheroid viability
Test: Anticancer human tumor 695427-040-R-J1-PDC patient-derived colon adenocarcinoma cell line growth inhibition [POLQ]
Conditions: for pIC50: curve of first compound; for viability, T/C: stronger effect = lower value
Outline: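 PDC + HUVEC + MSC complex spheroids; POLQ inhibitors ± partner drugs; top conc. at/near clinical Cmax, else 10 microM (SN-38 1 microM), half-log dilutions; 37 degrees C, 5% CO2.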

[1] = second compound 0.0316 µM, first compound 0.0316 µM
[2] = second compound 0.0316 µM, first compound 0.1 µM
[3] = second compound 0.0316 µM, first compound 0.316 µM
[4] = second compound 0.0316 µM, first compound 1 µM
[5] = second compound 0.0316 µM, first compound 3.16 µM
[6] = second compound 0.0316 µM, first compound 10 µM
[7] = second compound 0.1 µM, first compound 0.0316 µM
[8] = second compound 0.1 µM, first compound 0.1 µM
[9] = second compound 0.1 µM, first compound 0.316 µM
[10] = second compound 0.1 µM, first compound 1 µM
[11] = second compound 0.1 µM, first compound 3.16 µM
[12] = second compound 0.1 µM, first compound 10 µM
[13] = second compound 0.316 µM, first compound 0.0316 µM
[14] = second compound 0.316 µM, first compound 0.1 µM
[15] = second compound 0.316 µM, first compound 0.316 µM
[16] = second compound 0.316 µM, first compound 1 µM
[17] = second compound 0.316 µM, first compound 3.16 µM
[18] = second compound 0.316 µM, first compound 10 µM
[19] = second compound 1 µM, first compound 0.0316 µM
[20] = second compound 1 µM, first compound 0.1 µM
[21] = second compound 1 µM, first compound 0.316 µM
[22] = second compound 1 µM, first compound 1 µM
[23] = second compound 1 µM, first compound 3.16 µM
[24] = second compound 1 µM, first compound 10 µM
[25] = second compound 3.16 µM, first compound 0.0316 µM
[26] = second compound 3.16 µM, first compound 0.1 µM
[27] = second compound 3.16 µM, first compound 0.316 µM
[28] = second compound 3.16 µM, first compound 1 µM
[29] = second compound 3.16 µM, first compound 3.16 µM
[30] = second compound 3.16 µM, first compound 10 µM
[31] = second compound 10 µM, first compound 0.0316 µM
[32] = second compound 10 µM, first compound 0.1 µM
[33] = second compound 10 µM, first compound 0.316 µM
[34] = second compound 10 µM, first compound 1 µM
[35] = second compound 10 µM, first compound 3.16 µM
[36] = second compound 10 µM, first compound 10 µM
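Further: spheroids exposed to compounds for seven days.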
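Wherever viability, T/C is given: 100% = DMSO vehicle control viability.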

C=CC(=O)N1CCN(c2nc(=O)n(-c3c(C)ccnc3C(C)C)c3nc(-c4c(O)cccc4F)c(F)cc23)C(C)C1 (stereo unspecified) + COC1C(OC(N)=O)C(O)C(Oc2ccc3c(O)c(NC(=O)c4ccc(O)c(CC=C(C)C)c4)c(=O)oc3c2C)OC1(C)C
pIC50 (second compound 0.0316 µM): < 5.00 | pIC50 (second compound 0.1 µM): < 5.00 | pIC50 (second compound 0.316 µM): < 5.00 | pIC50 (second compound 1 µM): < 5.00 | pIC50 (second compound 3.16 µM): < 5.00 | pIC50 (second compound 10 µM): < 5.00 | viability, T/C [1]: 99.8% | viability, T/C [2]: 94.9% | viability, T/C [3]: 97.9% | viability, T/C [4]: 106% | viability, T/C [5]: 113% | viability, T/C [6]: 105% | viability, T/C [7]: 104% | viability, T/C [8]: 102% | viability, T/C [9]: 106% | viability, T/C [10]: 111% | viability, T/C [11]: 118% | viability, T/C [12]: 122% | viability, T/C [13]: 106% | viability, T/C [14]: 101% | viability, T/C [15]: 102% | viability, T/C [16]: 116% | viability, T/C [17]: 112% | viability, T/C [18]: 107% | viability, T/C [19]: 109% | viability, T/C [20]: 102% | viability, T/C [21]: 105% | viability, T/C [22]: 110% | viability, T/C [23]: 119% | viability, T/C [24]: 117% | viability, T/C [25]: 103% | viability, T/C [26]: 109% | viability, T/C [27]: 100% | viability, T/C [28]: 107% | viability, T/C [29]: 125% | viability, T/C [30]: 107% | viability, T/C [31]: 111% | viability, T/C [32]: 92.7% | viability, T/C [33]: 104% | viability, T/C [34]: 109% | viability, T/C [35]: 113% | viability, T/C [36]: 114%

CC(C)n1c(=O)n(C)c2cnc3cc(F)c(-c4ccc(OCCCN5CCCCC5)nc4)cc3c21 + COC1C(OC(N)=O)C(O)C(Oc2ccc3c(O)c(NC(=O)c4ccc(O)c(CC=C(C)C)c4)c(=O)oc3c2C)OC1(C)C
pIC50 (second compound 0.0316 µM): < 5.00 | pIC50 (second compound 0.1 µM): < 5.00 | pIC50 (second compound 0.316 µM): < 5.00 | pIC50 (second compound 1 µM): < 5.00 | pIC50 (second compound 3.16 µM): < 5.00 | pIC50 (second compound 10 µM): < 5.00 | viability, T/C [1]: 99.3% | viability, T/C [2]: 98.7% | viability, T/C [3]: 109% | viability, T/C [4]: 113% | viability, T/C [5]: 110% | viability, T/C [6]: 82.6% | viability, T/C [7]: 114% | viability, T/C [8]: 101% | viability, T/C [9]: 112% | viability, T/C [10]: 118% | viability, T/C [11]: 101% | viability, T/C [12]: 80.1% | viability, T/C [13]: 111% | viability, T/C [14]: 103% | viability, T/C [15]: 110% | viability, T/C [16]: 101% | viability, T/C [17]: 114% | viability, T/C [18]: 74.4% | viability, T/C [19]: 110% | viability, T/C [20]: 104% | viability, T/C [21]: 108% | viability, T/C [22]: 112% | viability, T/C [23]: 105% | viability, T/C [24]: 77.2% | viability, T/C [25]: 106% | viability, T/C [26]: 102% | viability, T/C [27]: 103% | viability, T/C [28]: 109% | viability, T/C [29]: 102% | viability, T/C [30]: 79% | viability, T/C [31]: 106% | viability, T/C [32]: 99.5% | viability, T/C [33]: 110% | viability, T/C [34]: 113% | viability, T/C [35]: 114% | viability, T/C [36]: 77.6%

CC1COCCN1c1cc(C2(S(C)(=N)=O)CC2)nc(-c2ccnc3[nH]ccc23)n1 (stereo unspecified) + COC1C(OC(N)=O)C(O)C(Oc2ccc3c(O)c(NC(=O)c4ccc(O)c(CC=C(C)C)c4)c(=O)oc3c2C)OC1(C)C
pIC50 (second compound 0.0316 µM): < 5.00 | pIC50 (second compound 0.1 µM): < 5.00 | pIC50 (second compound 0.316 µM): < 5.00 | pIC50 (second compound 1 µM): < 5.00 | pIC50 (second compound 3.16 µM): < 5.00 | pIC50 (second compound 10 µM): < 5.00 | viability, T/C [1]: 96.3% | viability, T/C [2]: 101% | viability, T/C [3]: 101% | viability, T/C [4]: 101% | viability, T/C [5]: 93.9% | viability, T/C [6]: 86% | viability, T/C [7]: 124% | viability, T/C [8]: 89.4% | viability, T/C [9]: 104% | viability, T/C [10]: 96.8% | viability, T/C [11]: 97.6% | viability, T/C [12]: 80.8% | viability, T/C [13]: 104% | viability, T/C [14]: 89.7% | viability, T/C [15]: 101% | viability, T/C [16]: 101% | viability, T/C [17]: 101% | viability, T/C [18]: 81.7% | viability, T/C [19]: 104% | viability, T/C [20]: 105% | viability, T/C [21]: 102% | viability, T/C [22]: 99.3% | viability, T/C [23]: 107% | viability, T/C [24]: 86.5% | viability, T/C [25]: 94.1% | viability, T/C [26]: 90.7% | viability, T/C [27]: 99.7% | viability, T/C [28]: 97.1% | viability, T/C [29]: 107% | viability, T/C [30]: 85.9% | viability, T/C [31]: 104% | viability, T/C [32]: 102% | viability, T/C [33]: 102% | viability, T/C [34]: 97.7% | viability, T/C [35]: 102% | viability, T/C [36]: 79%
